Laboratory results: patent publication US9259409B2, “Compositions comprising a prostaglandin for treating neuropsychiatric conditions” (Inceptum Research & Therapeutics, Inc., priority 2011, dated 2016)
Entries after “also recorded” stand apart in the source; their conditions may differ.

What was measured:
GSK-3 [1] = experiment: Cytoplasmic β-catenin stabilization in HEK293T cells (Western blot); format: cell-based, human; conditions: 10 μM, vs DMSO-treated cells
Procedure: Human embryonic kidney 293T (HEK293T) cells, U87MG astrocytoma and the human oligodendrocyte cell line MO3-13 were grown in Dubelco Minimal Eagle Media (DMEM) (Invitrogen, Carlsbad, Calif., USA) supplemented with 5% heat inactivated fetal bovine serum. Cells were grown to 70% confluence prior to treatment. […] Cells were exposed to drug for 3 hours at 37° C. in a 5% CO2 incubator. U87MG cells were grown to 70% confluence prior to treatment. Cells were treated with either DMSO vehicle (NT) or individually with 1, 5 and 10 μM latanoprost in DMEM lacking fetal bovine serum. Cells were exposed to treatments for 6 hours at 37° C. in a 5% CO2 incubator. The human oligodendrocyte cell line MO3-13 was grown and differentiated according to the methods described in McLaurin et al. (McLaurin, J., Trudel, G. C., Shaw, I. T., Antel, J. P., and Cashman, N. R., J. Neurobiol., 26: 283-293, 1995). On the third day of serum starvation, cells were treated with either DMSO vehicle (NT) or individually with 1, 5 and 10 μM latanoprost. Cells were exposed to treatments for 6 hours at 37° C. in a 5% CO2 incubator.
(§1) For detection of CREB and Serine-133 (S133)-phosphorylated CREB, serotonin receptor 5HT2A, TCF/LEF1, BDNF and TNF-total protein extracts were prepared from cell cultures using a sintered glass tissue homogenizer (Wheaton, Millville, N.J., USA) in phosphate-buffered saline (PBS), pH 7.5, 3M urea. For detection of β-catenin, cell cultures were washed with PBS, trypsinized, and pelleted at 1,000 rpm for 4 minutes. The cell pellets were washed and resuspended in cold hypotonic buffer consisting of 10 mM HEPES (pH 7.5), 1.5 mM MgCl2, 10 mM KCl, 0.5 mM DTT, and EDTA-free protease inhibitor (Roche, Laval, QC, Canada) in an ice bath for 5 minutes. The mixture was then homogenized using a dounce homogenizer and the cellular debris was pelleted by centrifugation at 4° C. Cytoplasmic fractions were recovered and used for assaying β-catenin.
(§2) Protein concentrations were determined by the Peterson method (Peterson, Analyt. Biochem., 83: 346-356, 1977). […]

DBA/2J mice = experiment: Open field test, amphetamine-stimulated activity mouse model of bipolar disorder; format: in vivo
Procedure: DBA/2J strain mice (Jackson Laboratories, Bar Harbor, Me., USA) were obtained with an approximate starting age of 8 weeks and an average body weight of 25.9 g. Mice were acclimatized for at least three days prior to study commencement, and animals in poor condition were rejected during the acclimatization period. All mice were housed under identical conditions in animal rooms with HEPA-filtered air at a temperature of 70° F.+/−5° F. and a relative humidity of 50%+/−20%. Animal rooms maintained a minimum of 12 to 15 air changes per hour with a light/dark cycle of 12 hours on and 12 hours off with no twilight. Sterile Bed-O-Cobs® bedding was used and changed a minimum of once per week. […]
At the commencement of the study, sixty (60) mice were randomly divided into six (6) groups of ten (10) animals. […] During this time, distance traveled was automatically recorded using TopScan (Clever Sys, Reston, Va., USA) video tracking software.
The data herein indicate that PG and PG derivatives may be effective in treating neuropsychiatric conditions such as bipolar disorder. Therefore, we evaluated the efficacy of latanoprost in an open field model of bipolar disorder in mice. […]
Total distance traveled for each mouse over a 20-minute session was recorded using TopScan (Clever Sys, Reston, Va., USA) video tracking software. […]

GSK-3 [2] = experiment: Distalless (Dll) expression in Drosophila wing imaginal discs as assay of GSK-3 function; format: cell-based; conditions: for Dll expression in wing imaginal discs: Dll lacZ, vs DMSO
GSK-3 [3] = experiment: Glycogen deposition in fat body tissue of third instar larvae; format: cell-based, Drosophila melanogaster; conditions: 10 and 20 μM; vs vehicle (DMSO)
Procedure: GSK-3 also functions in glycogen deposition via an independent pathway to that of the Wnt/Wg signaling pathway. GSK-3 functions in the glycogen deposition pathway by phosphorylating and inactivating glycogen synthase, which catalyzes the rate-limiting step of glycogen synthesis. To further confirm that PG and PG derivatives inhibit GSK-3 activity, fat body tissue from third instar Drosophila melanogaster larvae was treated with vehicle (DMSO) or 10 and 20 μM latanoprost and the effects of drug treatment on glycogen accumulation was monitored.

[4] = test system: human oligodendrocyte cell line MO3-13; experiment: Immuno-slotblot assay for secreted BDNF, oligodendrocyte conditioned media; format: cell-based; conditions: 1 μM, 5 μM, 10 μM; oligodendrocytes media; vs non-treated and DMSO
Procedure: (§3) Human embryonic kidney 293T (HEK293T) cells, U87MG astrocytoma and the human oligodendrocyte cell line MO3-13 were grown in Dubelco Minimal Eagle Media (DMEM) (Invitrogen, Carlsbad, Calif., USA) supplemented with 5% heat inactivated fetal bovine serum. Cells were grown to 70% confluence prior to treatment. HEK293T cells were treated individually with […] latanoprost, unoprostone, bimatoprost, fluprostenol, PGE2, and PGF2α in serum-free DMEM. Cells were exposed to drug for 3 hours at 37° C. in a 5% CO2 incubator. U87MG cells were grown to 70% confluence prior to treatment. […]
(§4) Cell culture media from cells that were not treated or treated with DMSO, 1, 5 or 10 μM latanoprost treated was collected in 15-mL screw cap polypropylene tubes from cell culture dishes. […] The relative amount of BDNF secreted by U87MG astrocytoma and MO3-13 oligodendrocyte cell lines were determined by an immune-slotblot method in which 200 μL of conditioned media was applied in triplicate to nitrocellulose membrane pre-wet in water in a Biodot (SF) ultrafiltration unit (Bio-Rad Laboratories, Mississauga, ON, Canada) under vacuum. […] After washing the membrane as above, the bound secondary antibody was detected by ECL Advance™ Western blot HRP substrate (GE Healthcare) using a ChemiDoc™ MP Imaging System (Bio-Rad Laboratories). The relative amount of BDNF was determined by using ImageLab™ software (BioRad). […]

U87MG astrocytoma = experiment: Immuno-slotblot assay for secreted BDNF, astrocytoma conditioned media; format: cell-based, human; conditions: 1 μM, 5 μM, 10 μM; astrocyte conditioned media; vs non-treated and DMSO
Procedure: as §3, §4

U87MG cells = experiment: Bipolar disorder biomarkers in glioblastoma U87 cell line (Western blot); format: cell-based, human; conditions: 1 μM, 5 μM, 10 μM, vs untreated cells
Procedure: Human embryonic kidney 293T (HEK293T) cells, U87MG astrocytoma and the human oligodendrocyte cell line MO3-13 were grown in Dubelco Minimal Eagle Media (DMEM) (Invitrogen, Carlsbad, Calif., USA) supplemented with 5% heat inactivated fetal bovine serum. Cells were grown to 70% confluence prior to treatment. HEK293T cells were treated individually with […] latanoprost, unoprostone, bimatoprost, fluprostenol, PGE2, and PGF2α in serum-free DMEM. Cells were exposed to drug for 3 hours at 37° C. in a 5% CO2 incubator. U87MG cells were grown to 70% confluence prior to treatment. Cells were treated with either DMSO vehicle (NT) or individually with 1, 5 and 10 μM latanoprost in DMEM lacking fetal bovine serum. Cells were exposed to treatments for 6 hours at 37° C. in a 5% CO2 incubator. The human oligodendrocyte cell line MO3-13 was grown and differentiated according to the methods described in McLaurin et al. (McLaurin, J., Trudel, G. C., Shaw, I. T., Antel, J. P., and Cashman, N. R., J. Neurobiol., 26: 283-293, 1995). On the third day of serum starvation, cells were treated with either DMSO vehicle (NT) or individually with 1, 5 and 10 μM latanoprost. Cells were exposed to treatments for 6 hours at 37° C. in a 5% CO2 incubator.
as §1
Protein concentrations were determined by the Peterson method (Peterson, Analyt. Biochem., 83: 346-356, 1977). Proteins (20 μg/lane) were loaded onto SDS-polyacrylamide gels and separated by electrophoresis. Proteins in gels were transferred onto PVDF membranes and processed for antibody reactions. To detect CREB, S133-phosphorylated CREB, and GAPDH loading controls, antibodies were diluted in 2% ECL Advance™ blocking reagent (GE Healthcare, Mississauga, ON, Canada) and solubilized in PBS-Tween20. Membranes were probed overnight at 4° C. Membranes were washed four times with PBS-Tween20 and labeled for 1 hour at 20° C. with secondary antibodies conjugated to horseradish peroxidase (HRP). The membrane was washed four more times with PBS-Tween20 and HRP activity was developed using Advance™ chemiluminescence (ECL) reagent (GE Healthcare, Mississauga, ON, Canada) according to the manufacturer's instructions. PVDF membranes were exposed to X-ray film.
We next examined the effects of latanoprost treatment (1 μM, 5 μM, and 10 μM) on other bipolar disorder biomarkers in glioblastoma U87 cell line.

β-catenin = β-catenin stabilization in the brain of open field test mice (Western blot); format: in vivo, mouse; conditions: brains after open field test; relative to mice treated with saline; n=3
Procedure: Following the open field test behavioral analysis of mice, the mice were euthanized and their brains were dissected and bifurcated along the longitudinal fissure. Brain samples from mice treated with vehicle (saline), latanoprost, or lithium were processed for β-catenin stabilization by extraction with hypotonic buffer. The levels of stabilized β-catenin were analyzed by Western blot, and the relative amounts of β-catenin (represented as the mean relative amount of three mice per group) were quantified.

[5] = test system: CREB transcription factor; experiment: CREB transcription factor activation (S133 phosphorylation) in HEK293T cells (Western blot); format: cell-based, human; conditions: 10 μM, vs DMSO-treated cells
Procedure: Human embryonic kidney 293T (HEK293T) cells, U87MG astrocytoma and the human oligodendrocyte cell line MO3-13 were grown in Dubelco Minimal Eagle Media (DMEM) (Invitrogen, Carlsbad, Calif., USA) supplemented with 5% heat inactivated fetal bovine serum. Cells were grown to 70% confluence prior to treatment. […] Cells were exposed to drug for 3 hours at 37° C. in a 5% CO2 incubator. U87MG cells were grown to 70% confluence prior to treatment. Cells were treated with either DMSO vehicle (NT) or individually with 1, 5 and 10 μM latanoprost in DMEM lacking fetal bovine serum. Cells were exposed to treatments for 6 hours at 37° C. in a 5% CO2 incubator. The human oligodendrocyte cell line MO3-13 was grown and differentiated according to the methods described in McLaurin et al. (McLaurin, J., Trudel, G. C., Shaw, I. T., Antel, J. P., and Cashman, N. R., J. Neurobiol., 26: 283-293, 1995). On the third day of serum starvation, cells were treated with either DMSO vehicle (NT) or individually with 1, 5 and 10 μM latanoprost. Cells were exposed to treatments for 6 hours at 37° C. in a 5% CO2 incubator. […]
as §2

SMILES: CCCCC[C@H](O)/C=C/[C@H]1[C@H](O)CC(=O)[C@@H]1C/C=C\CCCC(=O)O [PGE2, (Z)-7-[(1R,2R,3R)-3-hydroxy-2-[(E)-(3S)-3-hydroxy-1-octenyl]-5-oxo-cyclopentyl]-hept-5-enoic acid]
- levels of cytoplasmic β-catenin (GSK-3 [1]): increased levels of cytoplasmic β-catenin

SMILES: CCCCC[C@H](O)/C=C/[C@@H]1[C@@H](C/C=C\CCCC(=O)O)[C@@H](O)C[C@H]1O [PGF2α, (Z)-7-[(1R,2R,3R,5S)-3,5-dihydroxy-2-[(E)-(3S)-3-hydroxy-1-octenyl]-cyclopentyl]-5-heptenoic acid]
- levels of cytoplasmic β-catenin (GSK-3 [1]): increased levels of cytoplasmic β-catenin

SMILES: CC(C)OC(=O)CCC/C=C\C[C@@H]1[C@@H](CC[C@@H](O)CCc2ccccc2)[C@H](O)C[C@@H]1O [latanoprost, propan-2-yl-(Z)-7-[(1R,2R,3R,5S)-3,5-dihydroxy-2-[(3R)-3-hydroxy-5-phenylpentyl]cyclopentyl]-hept-5-enoate]
- amphetamine-stimulated locomotion (distance traveled) (DBA/2J mice; final five minutes of 20-minute open field test, 0.5 mg/kg amphetamine, drug IP 1 hour prior to test, 0.5 mg/kg): significantly reduced; also recorded: significantly (P<0.05) attenuates
- activity in saline-treated mice (DBA/2J mice; no amphetamine, compared among vehicle, latanoprost, lithium): No significant differences
- Dll expression in wing imaginal discs (GSK-3 [2]; 20 μM): increased Dll expression
- Dll activation (DLL protein levels in wing pouch) (GSK-3 [2]; increasing doses 1 μM, 5 μM, 10 μM and 20 μM, vs DMSO control vehicle): significant activation of Dll
- glycogen accumulation in fat body tissue (GSK-3 [3]): increase in glycogen accumulation in a dosage-dependent manner
- amount of BDNF secreted [4]: no significant increase
- amount of BDNF secreted (U87MG astrocytoma): increased significantly
- levels of cytoplasmic β-catenin (GSK-3 [1]): increased levels of cytoplasmic β-catenin
- levels of BDNF (U87MG cells): increased levels
- levels of inflammatory cytokine TNF-α (U87MG cells): reduced levels
- levels of serotonin receptor 5HT2A (U87MG cells): increased levels
- levels of transcription factor TCF/LEF1 (U87MG cells): increased levels
- phosphorylation at Ser133 on CREB (U87MG cells): increased levels
- total level of CREB protein (U87MG cells): remaining relatively constant
- levels of β-catenin in brain (β-catenin): significantly increased levels of β-catenin
- levels of S133 phosphorylated-CREB [5]: increased levels of 5133 phosphorylated-CREB

SMILES: CCCC(CCC)C(=O)O [valproate]
- Dll expression in wing imaginal discs (GSK-3 [2]; 1 mM): activation of Dll expression
